Test results reported in ChEMBL document CHEMBL1152731, “Design, synthesis, and anti-HIV activity of 4'-modified carbocyclic nucleoside phosphonate reverse transcriptase inhibitors” (Bioorg Med Chem, 2009).
pEC50, pIC50: −log10 of the molar value.

Columns and labels:
[1] = system: Human immunodeficiency virus 1; assay: Antiviral activity against HIV1 3a infected human MT2 cells assessed as inhibition of viral-induced cytopathic effect after 3 days by XTT assay; type: functional, organism-based; details: Human immunodeficiency virus 1, 3a, MT2, 72 h
[2] = biological target: Human immunodeficiency virus type 1 reverse transcriptase (Human immunodeficiency virus 1, UniProt Q72547); assay: Inhibition on HIV1 reverse transcriptase p66/p51
[3] = system: Human immunodeficiency virus 1; assay: Antiviral activity against HIV1 3a with reverse transcriptase K65R mutation in human MT2 cells assessed as inhibition of viral-induced cytopathic effect by XTT assay relative to wild type; type: functional
[4] = Cytotoxicity against human MT2 cells after 5 days; type: cell-based
[5] = system: Human immunodeficiency virus 1; assay: Antiviral activity against HIV1 3a with reverse transcriptase M184V mutation in human MT2 cells assessed as inhibition of viral-induced cytopathic effect by XTT assay relative to wild type; type: functional

| Compound | pEC50 [1] | pIC50 [2] | fold change (FC) [3] | CC50 at 120 h [4] | fold change (FC) [5] |
| --- | --- | --- | --- | --- | --- |
| Nc1ncnc2c1ncn2[C@H]1C=C[C@@H](OCP(=O)(O)O)C1 | 4.28 |  |  |  |  |
| C=C[C@@]1(OCP(=O)(O)OP(=O)(O)OP(=O)(O)O)C=C[C@H](n2cnc3c(N)ncnc32)C1 |  | 6.21 |  |  |  |
| C#C[C@@]1(OCP(=O)(O)O)C=C[C@H](n2cnc3c(N)ncnc32)C1 | 4.80 | 6.89 | 2.2 | 1.45 mM | >30 |
| Cc1cn([C@H]2C[C@H](N=[N+]=[N-])[C@@H](CO)O2)c(=O)[nH]c1=O [ZIDOVUDINE] |  |  | 1.2 | > 0.2 mM | 0.7 |
| C[C@H](Cn1cnc2c(N)ncnc21)OCP(=O)(O)O [TENOFOVIR ANHYDROUS] |  |  | 4.3 | > 1 mM | 0.7 |
| Nc1ncnc2c1ncn2[C@@H]1O[C@H](OCP(=O)(O)O)C=C1F [GS-9148] |  |  | 1.1 | > 1 mM | 0.8 |
| C[C@@]1(OCP(=O)(O)O)C=C[C@H](n2cnc3c(N)ncnc32)C1 | 3.61 |  |  |  |  |
| Nc1nc(NC2CC2)c2ncn([C@H]3C=C[C@@H](CO)C3)c2n1 [ABACAVIR] | 6.49 | 6.89 | 3.8 |  | 7.1 |
| Nc1ncnc2c1ncn2[C@H]1C=C[C@@H](OCP(=O)(O)O)O1 |  |  | 2.9 | > 1 mM | 2.9 |
